Laboratory results reported in US20190071416A1, “COMPOUNDS FOR TREATMENT OF CANCER AND EPIGENETICS” (Agency For Science, Technology and Research, priority 2015, published 2019).

The molecules below were run against T1, SMYD3 (Homo sapiens, UniProt Q9H7B4) (assay: SMYD3 biochemical assay (MTase-Glo, MAP3K2 peptide substrate)). Details: Table 3; MTase assay, MAP3K2 peptide substrate; read-out: IC50.
T1 sequence (Q9H7B4 1-428): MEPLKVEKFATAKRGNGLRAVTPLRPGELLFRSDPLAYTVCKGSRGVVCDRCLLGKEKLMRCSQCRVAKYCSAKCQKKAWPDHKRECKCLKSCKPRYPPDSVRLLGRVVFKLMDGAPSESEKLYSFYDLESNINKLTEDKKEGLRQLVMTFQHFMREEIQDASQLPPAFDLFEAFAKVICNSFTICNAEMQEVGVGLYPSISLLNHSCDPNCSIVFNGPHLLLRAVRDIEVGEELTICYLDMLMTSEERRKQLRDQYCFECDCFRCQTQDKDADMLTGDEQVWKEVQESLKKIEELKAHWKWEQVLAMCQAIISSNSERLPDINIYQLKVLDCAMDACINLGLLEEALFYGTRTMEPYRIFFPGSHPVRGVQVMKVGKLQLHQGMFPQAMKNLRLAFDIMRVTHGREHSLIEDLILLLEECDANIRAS
Outline: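 Luminescent readout of SAH production (coupled SAH→ATP conversion, MTase-Glo) after SMYD3 reacted 30 min at room temperature with 1.0 µM SAM and 10 µM MAP3K2 peptide, both final. Non-linear regression gave IC50 values.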

| IC50 [nM] | SMILES |
| --- | --- |
| 590 | CCCOC(=O)N1CCN(C(=O)c2ccc3c(Cl)c4c(nc3c2)CC(c2ncccc2F)CC4)CC1 (stereo not shown) [A099, Propyl 4-(9-chloro-6-(3-fluoropyridin-2-yl)-5,6,7,8-tetrahydroacridine-3-carbonyl)piperazine-1-carboxylate] |
| 570 | CCCOC(=O)N1CCN(C(=O)c2ccc3c(Cl)c4c(nc3c2)CC(c2ncccc2F)CC4)[C@@H](C)C1 (stereo partly drawn) [A100, Propyl (3S)-4-(9-chloro-6-(3-fluoropyridin-2-yl)-5,6,7,8-tetrahydroacridine-3-carbonyl)-3-methylpiperazine-1-carboxylate] |
| 1700 | CCCOC(=O)N1CCN(C(=O)c2ccc3c(Cl)c4c(nc3c2)CC(c2ncccc2C)CC4)[C@@H](C)C1 (stereo partly drawn) [A101, Propyl (3S)-4-(9-chloro-6-(3-methylpyridin-2-yl)-5,6,7,8-tetrahydroacridine-3-carbonyl)-3-methylpiperazine-1-carboxylate] |
| 230 | CCCOC(=O)N1CCN(C(=O)c2ccc3c(Cl)c4c(nc3c2)CC(CN)CC4)[C@H](C)C1 (stereo partly drawn) [A102, Propyl (3R)-4-(6-(aminomethyl)-9-chloro-5,6,7,8-tetrahydroacridine-3-carbonyl)-3-methylpiperazine-1-carboxylate] |
| 390 | CCCOC(=O)N1CCN(C(=O)c2ccc3c(Cl)c4c(nc3c2)CC(Cc2ccccn2)CC4)CC1 (stereo not shown) [A103, Propyl 4-(9-chloro-6-(pyridin-2-ylmethyl)-5,6,7,8-tetrahydroacridine-3-carbonyl)piperazine-1-carboxylate] |
| 83 | CCCOC(=O)N1CCN(C(=O)c2ccc3c(Cl)c4c(nc3c2)CC(c2ccnc(C)c2)CC4)CC1 (stereo not shown) [A104, Propyl 4-(9-chloro-6-(2-methylpyridin-4-yl)-5,6,7,8-tetrahydroacridine-3-carbonyl)piperazine-1-carboxylate] |
| 90 | CCCOC(=O)N1CCN(C(=O)c2ccc3c(Cl)c4c(nc3c2)CC(CCN(C)C)CC4)CC1 (stereo not shown) [A105, Propyl 4-(9-chloro-6-(2-(dimethylamino)ethyl)-5,6,7,8-tetrahydroacridine-3-carbonyl)piperazine-1-carboxylate] |
| 41 | CCCOC(=O)N1CCN(C(=O)c2ccc3c(Cl)c4c(nc3c2)CC(c2ccc(F)cn2)CC4)[C@H](C)C1 (stereo partly drawn) [A106, Propyl (3R)-4-(9-chloro-6-(5-fluoropyridin-2-yl)-5,6,7,8-tetrahydroacridine-3-carbonyl)-3-methylpiperazine-1-carboxylate] |
| 380 | CCCOC(=O)N1CCN(C(=O)c2ccc3c(Cl)c4c(nc3c2)CC(c2ncccc2C)CC4)C[C@@H]1C (stereo partly drawn) [A107, Propyl (2S)-4-(9-chloro-6-(3-methylpyridin-2-yl)-5,6,7,8-tetrahydroacridine-3-carbonyl)-2-methylpiperazine-1-carboxylate] |
| 480 | CCCOC(=O)N1CCN(C(=O)c2ccc3c(Cl)c4c(nc3c2)CC(c2ncccc2C)CC4)C[C@H]1C (stereo partly drawn) [A108, Propyl (2R)-4-(9-chloro-6-(3-methylpyridin-2-yl)-5,6,7,8-tetrahydroacridine-3-carbonyl)-2-methylpiperazine-1-carboxylate] |
| 720 | CCCOC(=O)N1CCN(C(=O)c2ccc3c(Cl)c4c(nc3c2)CC(c2ncccc2C)CC4)[C@H](C)C1 (stereo partly drawn) [A109, Propyl (3R)-4-(9-chloro-6-(3-methylpyridin-2-yl)-5,6,7,8-tetrahydroacridine-3-carbonyl)-3-methylpiperazine-1-carboxylate] |
| 840 | CCCOC(=O)N1CCN(C(=O)c2ccc3c(Cl)c4c(nc3c2)CCCC4)CC1COC (stereo not shown) [A110, Propyl 4-(9-chloro-5,6,7,8-tetrahydroacridine-3-carbonyl)-2-(methoxymethyl)piperazine-1-carboxylate] |
| 47 | CCCOC(=O)N1CCN(C(=O)c2ccc3c(Cl)c4c(nc3c2)CC(CCN)CC4)[C@H](C)C1 (stereo partly drawn) [A111, Propyl (3R)-4-(6-(2-aminoethyl)-9-chloro-5,6,7,8-tetrahydroacridine-3-carbonyl)-3-methylpiperazine-1-carboxylate] |
| 140 | CCCOC(=O)N1CCN(C(=O)c2ccc3c(Cl)c4c(nc3c2)CC(c2cnccn2)CC4)CC1 (stereo not shown) [A112, Propyl 4-(9-chloro-6-(pyrazin-2-yl)-5,6,7,8-tetrahydroacridine-3-carbonyl)piperazine-1-carboxylate] |
| 340 | CCCOC(=O)N1CCN(C(=O)c2ccc3c(Cl)c4c(nc3c2)CC(c2ncccc2F)CC4)[C@H](C)C1 (stereo partly drawn) [A113, Propyl (3R)-4-(9-chloro-6-(3-fluoropyridin-2-yl)-5,6,7,8-tetrahydroacridine-3-carbonyl)-3-methylpiperazine-1-carboxylate] |
| 110 | CCCOC(=O)N1CCN(C(=O)c2ccc3c(Cl)c4c(nc3c2)CC(c2ccnc(C)c2)CC4)[C@H](C)C1 (stereo partly drawn) [A114, Propyl (3R)-4-(9-chloro-6-(2-methylpyridin-4-yl)-5,6,7,8-tetrahydroacridine-3-carbonyl)-3-methylpiperazine-. 1-carboxylate] |

| IC50 [nM] | SMILES |
| --- | --- |
| 270 | CCCOC(=O)N1CCN(C(=O)c2ccc3c(Cl)c4c(nc3c2)CC(c2ncccc2F)CC4)C[C@H]1C (stereo partly drawn) [A115, Propyl (2R)-4-(9-chloro-6-(3-fluoropyridin-2-yl)-5,6,7,8-tetrahydroacridine-3-carbonyl)-2-methylpiperazine-1-carboxylate] |
| 210 | CCCOC(=O)N1CCN(C(=O)c2ccc3c(Cl)c4c(nc3c2)CCCC4)C(C#N)C1 (stereo not shown) [A116, Propyl 4-(9-chloro-5,6,7,8-tetrahydroacridine-3-carbonyl)-3-cyanopiperazine-1-carboxylate] |
| 120 | CCCOC(=O)N1CCN(C(=O)c2ccc3c(Cl)c4c(nc3c2)CCCC4)CC1C#N (stereo not shown) [A117, Propyl 4-(9-chloro-5,6,7,8-tetrahydroacridine-3-carbonyl)-2-cyanopiperazine-1-carboxylate] |
| 180 | CCCOC(=O)N1CCN(C(=O)c2ccc3c(Cl)c4c(nc3c2)C(C)CCC4)CC1 (stereo not shown) [A118, Propyl 4-(9-chloro-5-methyl-5,6,7,8-tetrahydroacridine-3-carbonyl)piperazine-1-carboxylate] |
| 1900 | CCCOC(=O)N1CCN(C(=O)c2ccc3c(Cl)c4c(nc3c2)C(c2ccccc2)CCC4)CC1 (stereo not shown) [A119, Propyl 4-(9-chloro-5-phenyl-5,6,7,8-tetrahydroacridine-3-carbonyl)piperazine-1-carboxylate] |
| 120 | CCCOC(=O)N1CCN(C(=O)c2ccc3c(Cl)c4c(nc3c2)CC(CCN(C)C)CC4)[C@H](C)C1 (stereo partly drawn) [A120, Propyl (3R)-4-(9-chloro-6-(2-(dimethylamino)ethyl)-5,6,7,8-tetrahydroacridine-3-carbonyl)-3-methylpiperazine-1-carboxylate] |
| 220 | CCCOC(=O)N1CCN(C(=O)c2ccc3c(Cl)c4c(nc3c2)CC(CCN2CCCC2)CC4)CC1 (stereo not shown) [A121, Propyl 4-(9-chloro-6-(2-(pyrrolidin-1-yl)ethyl)-5,6,7,8-tetrahydroacridine-3-carbonyl)piperazine-1-carboxylate] |
| 120 | CCCOC(=O)N1CCN(C(=O)c2ccc3c(Cl)c4c(nc3c2)CC(c2ccnc(C)c2)CC4)C[C@H]1C (stereo partly drawn) [A122, Propyl (2R)-4-(9-chloro-6-(2-methylpyridin-4-yl)-5,6,7,8-tetrahydroacridine-3-carbonyl)-2-methylpiperazine-1-carboxylate] |
| 140 | CCCOC(=O)N1CCN(C(=O)c2ccc3c(Cl)c4c(nc3c2)CC(c2ccnc(C)c2)CC4)C[C@@H]1C (stereo partly drawn) [A123, Propyl (2S)-4-(9-chloro-6-(2-methylpyridin-4-yl)-5,6,7,8-tetrahydroacridine-3-carbonyl)-2-methylpiperazine-1-carboxylate] |
| 340 | CCCOC(=O)N1CCN(C(=O)c2ccc3c(Cl)c4c(nc3c2)CC(c2ncccc2F)CC4)C[C@@H]1C (stereo partly drawn) [A124, Propyl (2S)-4-(9-chloro-6-(3-fluoropyridin-2-yl)-5,6,7,8-tetrahydroacridine-3-carbonyl)-2-methylpiperazine-1-carboxylate] |
| 250 | CCCOC(=O)N1CCN(C(=O)c2ccc3c(Cl)c4c(nc3c2)CCCC4)C(CO)C1 (stereo not shown) [A125, Propyl 4-(9-chloro-5,6,7,8-tetrahydroacridine-3-carbonyl)-3-(hydroxymethyl)piperazine-1-carboxylate] |
| 110 | CCCOC(=O)N1CCN(C(=O)c2ccc3c(Cl)c4c(nc3c2)CC(CCN(C)C)CC4)[C@@H](C)C1 (stereo partly drawn) [A126, Propyl (3S)-4-(9-chloro-6-(2-(dimethylamino)ethyl)-5,6,7,8-tetrahydroacridine-3-carbonyl)-3-methylpiperazine-1-carboxylate] |
| 110 | CCCOC(=O)N1CCN(C(=O)c2ccc3c(Cl)c4c(nc3c2)C(C)CCC4)C[C@H]1C (stereo partly drawn) [A127, Propyl (2R)-4-(9-chloro-5-methyl-5,6,7,8-tetrahydroacridine-3-carbonyl)-2-methylpiperazine-1-carboxylate] |
| 100 | CCCOC(=O)N1CCN(C(=O)c2ccc3c(Cl)c4c(nc3c2)CC(c2nccs2)CC4)CC1 (stereo not shown) [A128, Propyl 4-(9-chloro-6-(thiazol-2-yl)-5,6,7,8-tetrahydroacridine-3-carbonyl)piperazine-1-carboxylate] |
| 94 | CCCOC(=O)N1CCN(C(=O)c2ccc3c(Cl)c4c(nc3c2)CC(c2nccs2)CC4)C[C@H]1C (stereo partly drawn) [A129, Propyl (2R)-4-(9-chloro-6-(thiazol-2-yl)-5,6,7,8-tetrahydroacridine-3-carbonyl)-2-methylpiperazine-1-carboxylate] |
